{"source": "patent US20210180138A1", "about": "“METHODS FOR PROGNOSIS AND TREATMENT OF SOLID TUMORS” (CUREWIZE HEALTH LTD., priority 2017, published 2021)", "key": {"[1]": {"system": "breast cancer (MCF7) cell line", "assay": "Cell viability, XTT tetrazolium colorimetric assay", "type": "cell-based", "conditions": "24 hours, 1 nM, 10 nM and 100 nM, vs DMSO control", "protocol": "(§1) FK866 is a potent NAMPT inhibitor that causes the depletion of intracellular NAD+ levels in the cell and ultimately induces apoptosis and cell death. To characterize the effect of FK866 on prostate cancer (PC-3), colon cancer (Caco-2) and breast cancer (MCF7) cell lines, the effects of FK866 on cell death were evaluated. Cells were either control cells, treated with DMSO only, or were treated for 24 hours with 1 nanomolar (nM), 10 nM and 100 nM of FK866, and cell viability was measured using an XTT tetrazolium colorimetric assay."}, "[2]": {"system": "colon cancer (Caco-2) cell line", "assay": "Cell viability, XTT tetrazolium colorimetric assay", "type": "cell-based", "conditions": "24 hours, 1 nM, 10 nM and 100 nM, vs DMSO control", "protocol": "as §1"}, "[3]": {"system": "prostate cancer (PC-3) cell line", "assay": "Cell viability, XTT tetrazolium colorimetric assay", "type": "cell-based", "conditions": "24 hours, 1 nM, 10 nM and 100 nM, vs DMSO control", "protocol": "as §1"}, "[4]": {"system": "prostate cancer PC3 cell line", "assay": "In-vivo xenograft model, sensitivity to FK866 by miR-451 expression", "set-up": "species or system mice", "conditions": "for change in tumor growth between non-treated and treated group: 15 mg/kg once a day for 5 days repeated weekly", "protocol": "The effect of miR-451 expression levels on efficacy of NAMPT inhibitor was evaluated in an in-vivo xenograft mouse model as in Example 4A. The sensitivity of each prostate cancer cell line (miR-451, antagomiR-451 and scramble miR control) to FK866 treatment was examined in vivo. Twenty mice were injected with each cell line and were divided into two groups: 10 mice were treated with FK866 (15 mg/kg) once a day for 5 days repeated weekly and 10 served as controls, in which no NAMPT inhibitor was injected. The volume of the tumors was measured daily and mice were treated with FK866 from the day all tumors were clinically evident. Treatment with the drug started from day 13 and within 5 days of treatment a change in tumor size was observed between the antagomiR-451 group treated with FK866 and the antagomiR-451 receiving no treatment (FIG. 5A)."}, "[5]": {"system": "miR-451", "assay": "miR-451 expression by RT-qPCR in stable transfected lines", "type": "cell-based", "protocol": "The effect of miR-451 expression level on prostate cancer (PC-3), and breast cancer (MCF7) cell line tumor cells was evaluated in-vitro. Stable lines of each malignancy expressing miR-451 mimic and antagomiR-451 were obtained and transfected as in example 1. miR-451 expression levels in each cell line were validated by quantitative Real Time PCR (RT-qPCR). Total RNA was isolated from 10^7 cells using Qiagen RNeasy isolation kit according to the manufacturer's instruction (Qiagen, Hilden, Germany). 100 ng RNA was converted to cDNA using universal cDNA synthesis kit (Exiqon, Vedbaek, Denmark). RT-qPCR for the miR-451 was performed using Locked-nucleic Acid (LNA™) primers sets (Exiqon, Vedbaek, Denmark). 5S Ribosomal RNA was used as a reference gene. The RT-qPCR reactions were performed in duplicates on the LightCycler 480 (Roche, Rotkreuz, Switzerland) apparatus. The results were expressed as relative expression using the delta Ct method."}, "[6]": {"system": "MCF7 cells", "assay": "In-vivo xenograft model, tumor growth by miR-451 expression", "conditions": "MCF7 xenograft in NSG mice; end of experiment; antagomiR-451 cells compared with miR-451 mimic", "protocol": "(§2) The effect of miR-451 expression levels on tumor cell growth was evaluated in an in-vivo xenograft mice model using MCF7 cells and PC3 cells. Ten million cells harboring antagomiR-451 and miR-451 mimic were injected subcutaneously into the right flanks of 6-8 weeks-old immunodeficient NSG (NOD scid gamma) mice. Ten mice were injected with the MCF7 antagomiR-451 cell line and 11 mice were injected with the miR-451 mimic line. Ten mice were injected with the PC3 antagomiR-451 cell line and the PC3 miR-451 mimic cell line and 8 with the scrambled miR control cell line. The volume of the tumors was measured daily from the day the tumors were clinically evident in all mice."}, "[7]": {"system": "PC3 cells", "assay": "In-vivo xenograft model, tumor growth by miR-451 expression", "conditions": "PC3 xenograft in NSG mice; end of experiment; antagomiR-451 cells compared with miR-451 mimic", "protocol": "as §2"}, "[8]": {"system": "miR-451", "assay": "miR expression after transient transfection with miR-451 mimic", "type": "cell-based", "conditions": "PC-3, Caco-2, MCF7 cells transiently transfected, 200 pmol; compared to control cells transfected with scramble miR", "protocol": "(§3) A study was performed to determine if NAMPT is regulated by miR-451 in a representative cell line of each malignancy. Cells comprising prostate cancer (PC-3), colon cancer (Caco-2) and breast cancer (MCF7) cell lines were transiently transfected with a miR-451 mimic while “scrambled” miR-451 served as a control. The prostate cancer (PC-3), colon cancer (Caco-2), and breast cancer (MCF7) cells were obtained from ATCC and cultured according to ATCC growth recommendation. Two hundred pmol miR-451 mimic and 200 pmol scramble miR (IDT, Jerusalem, Israel) were transiently transfected by JETPRIME (Polyplus-transfection) into cells according to manufacturer's instructions.\nNAMPT protein expression was determined using FACS as follows: […]"}, "[9]": {"system": "NAMPT", "assay": "NAMPT protein expression by FACS in transfected cells", "type": "cell-based", "conditions": "PC-3, Caco-2 and MCF7 cell lines; 48 hours after transfection; compared to control scramble-miR cells", "protocol": "as §3\nOne to two million transfected cells were collected 48 hours after transfection and fixed using 500 μl BD phosflow fix buffer I (BD Biosciences, San Jose, Calif., USA) for 15 minutes. Then, pellets were washed twice using PBS and resuspended in 500 μl methanol. Samples were incubated for 2 hours in −20° C. […] The cells were analyzed on flow cytometer (FACSCalibur, Becton Dickinson, Le Pont-De-Claix, France) using BD CellQuest™ Pro software.\nFIG. 1 presents NAMPT protein expression level analyzed by FACS using a specific anti-NAMPT antibody in prostate cancer (PC-3), colon cancer (Caco-2) and breast cancer (MCF7) cell lines."}}}
{"molecule": "O=C(/C=C/c1cccnc1)NCCCCC1CCN(C(=O)c2ccccc2)CC1", "note": "[FK866]", "values": [{"measurement": "cell viability", "setting": "[1]", "result": "gradual decrease in cell viability"}, {"measurement": "cell viability", "setting": "[2]", "result": "gradual decrease in cell viability"}, {"measurement": "cell viability", "setting": "[3]", "result": "gradual decrease in cell viability"}, {"measurement": "time of treatment until change in tumor size observed vs no treatment", "setting": "[4]; PC3 antagomiR-451 group, treatment started from day 13, 15 mg/kg", "result": "≤ 5", "unit": "days"}, {"measurement": "change in tumor growth between non-treated and treated group", "setting": "[4]; mice injected with PC3 antagomiR-451 cells", "result": "major change in tumor growth"}, {"measurement": "change in tumor growth between non-treated and treated group", "setting": "[4]; mice injected with PC3 miR-451 mimic cells", "result": "moderate to almost no change in tumor growth"}, {"measurement": "change in tumor growth between non-treated and treated group", "setting": "[4]; mice injected with PC3 scramble miR control cells", "result": "moderate to almost no change in tumor growth"}]}
{"molecule": "antagomiR-451: SEQ ID NO: 3 is the nucleotide sequence of antagomiR-451 (antisense AATGATCTGTAACGGTTT; listed as DNA, chemistry not given here)", "values": [{"measurement": "decrease in miR-451 expression", "setting": "[5]; PC3 cells, compared to PC3 control cells", "result": 67, "unit": "%"}, {"measurement": "tumor volume", "setting": "[6]", "result": "significant increase in tumor volume"}, {"measurement": "tumor volume", "setting": "[7]", "result": "significant increase in tumor volume"}]}
{"molecule": "miR-451 mimic: SEQ ID NO: 1 is the nucleotide sequence of miR-451 mimic (AAACCGUUACCAUUACUGAGUU; listed as RNA, chemistry not given here)", "values": [{"measurement": "increase in the expression levels of the miR", "setting": "[8]", "result": 3, "unit": "fold"}, {"measurement": "NAMPT protein expression level", "setting": "[9]", "result": "reduction in NAMPT expression"}, {"measurement": "level in miR-451", "setting": "[5]; MCF7 cells, mimic compared with MCF7 cells transfected with antagomiR-451", "result": "twice as high"}, {"measurement": "increase in miR-451 expression", "setting": "[5]; PC3 cells, compared with control (PC3 cells transfected with miR scramble)", "result": "tenfold increase"}]}
